Data taken from ChEMBL document CHEMBL1201862, “PubChem BioAssay data set” (2004).
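96-well plates; 48 h exposure; 5 concentrations. Endpoints by linear interpolation between flanking doses. Not reached: highest tested concentration assigned. GI50 marks 50% less growth.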 Activity calls are given as the source filed them. Cut-off read from the data, not from the text of the source: active = GI50 up to about 1.1 µM and inactive = higher.

Columns and labels:
Assay in all cases: inhibition of tumour cell growth, NCI panel, 48 h
A498 = system: A498
A549 = system: A549
ACHN = system: ACHN
DMS-114 = system: DMS-114
DMS-273 = system: DMS-273
EKVX = system: EKVX
HCT-116 = system: HCT-116
HL-60 = system: HL-60
HOP-92 = system: HOP-92
HT-29 = system: HT-29
LXFL 529 = system: LXFL 529
M14 = system: M14
NCI-H522 = system: NCI-H522
OVCAR-4 = system: OVCAR-4
SK-OV-3 = system: SK-OV-3
SNB-75 = system: SNB-75
SNB-78 = system: SNB-78
MDA-MB-231 = system: MDA-MB-231
NCI/ADR-RES = system: NCI/ADR-RES
T47D = system: T47D

Measured: GI50

Nc1nc(SCc2ccc([N+](=O)[O-])cc2)nc2c1ncn2C1OC(COP(=O)(O)O)C(O)C1O (centres undefined)
inactive: A498 > 100 µM | A549 > 100 µM | ACHN > 100 µM | DMS-114 > 100 µM | DMS-273 > 100 µM | EKVX > 100 µM | HCT-116 > 100 µM | HL-60 > 100 µM | HOP-92 > 100 µM | HT-29 > 100 µM | LXFL 529 > 100 µM | M14 > 100 µM | NCI-H522 > 100 µM | OVCAR-4 > 100 µM | SK-OV-3 > 100 µM | SNB-75 > 100 µM | SNB-78 > 100 µM

O=C(OC1C=C=CS(=O)(=O)CC#C/C=C\1)c1cnc2ccccc2n1 (centres undefined)
inactive: A498 > 100 µM | A549 > 100 µM | ACHN 93.1 µM | EKVX 97.3 µM | HCT-116 92.3 µM | HL-60 76.4 µM | HOP-92 12.7 µM | HT-29 > 100 µM | M14 > 100 µM | MDA-MB-231 28.8 µM | NCI-H522 25.7 µM | NCI/ADR-RES > 100 µM | OVCAR-4 > 100 µM | SK-OV-3 > 100 µM | SNB-75 > 100 µM | T47D > 100 µM

COC(=O)/C=C(C)/C=C\COC1CCCCO1 (centres undefined)
inactive: A498 > 100 µM | A549 > 100 µM | ACHN > 100 µM | EKVX > 100 µM | HCT-116 > 100 µM | HL-60 > 100 µM | M14 > 100 µM | MDA-MB-231 > 100 µM | NCI-H522 > 100 µM | NCI/ADR-RES > 100 µM | OVCAR-4 > 100 µM | SK-OV-3 > 100 µM | SNB-75 > 100 µM | T47D > 100 µM

COc1cc(/C=N\O)cc(/C=N/O)c1O
inactive: A498 43.8 µM | A549 > 100 µM | ACHN 26.2 µM | EKVX 60.3 µM | HCT-116 33.4 µM | HL-60 27.7 µM | HOP-92 21.1 µM | HT-29 39.4 µM | M14 20 µM | MDA-MB-231 47.3 µM | NCI-H522 75.9 µM | NCI/ADR-RES 58.1 µM | OVCAR-4 > 100 µM | SK-OV-3 30.3 µM | SNB-75 80.7 µM | T47D 26.4 µM

O=C(NN1C(=O)C(Cl)C1c1cccc(O)c1)c1ccccc1O (centres undefined)
inactive: A498 > 100 µM | A549 > 100 µM | ACHN > 100 µM | DMS-114 > 100 µM | DMS-273 > 100 µM | HCT-116 > 100 µM | HL-60 > 100 µM | HT-29 > 100 µM | LXFL 529 > 100 µM | M14 > 100 µM | NCI-H522 > 100 µM | OVCAR-4 > 100 µM | SK-OV-3 > 100 µM | SNB-75 > 100 µM | SNB-78 > 100 µM

N#Cc1c(-c2ccc([N+](=O)[O-])cc2)cc(-c2ccc(Nc3ccnc4cc(C(F)(F)F)ccc34)cc2)nc1N
inactive: A498 > 48.3 µM | A549 13 µM | ACHN 29.6 µM | EKVX 36.1 µM | HCT-116 6.92 µM | HOP-92 20.8 µM | HT-29 5.13 µM | M14 11.7 µM | MDA-MB-231 18.9 µM | NCI-H522 17.2 µM | NCI/ADR-RES 8.89 µM | OVCAR-4 7.6 µM | SK-OV-3 24 µM | SNB-75 20.4 µM | T47D 7.89 µM

COC(=O)C12CCCN1CCC2
inactive: A549 > 100 µM | ACHN > 100 µM | EKVX > 100 µM | HCT-116 > 100 µM | HT-29 > 100 µM | M14 > 100 µM | MDA-MB-231 > 100 µM | NCI-H522 > 100 µM | NCI/ADR-RES > 100 µM | OVCAR-4 > 100 µM | SK-OV-3 > 100 µM | SNB-75 > 100 µM | T47D > 100 µM

O=S(=O)(O)c1cc(/N=[N+](\[O-])c2ccc(/N=N/c3ccccc3)cc2S(=O)(=O)O)ccc1/C=C/c1ccc(/N=[N+](\[O-])c2ccc(/N=N/c3ccccc3)cc2S(=O)(=O)O)cc1S(=O)(=O)O
inactive: A498 > 100 µM | A549 > 100 µM | DMS-114 > 100 µM | DMS-273 > 95.3 µM | EKVX > 100 µM | HCT-116 > 100 µM | HL-60 > 100 µM | HOP-92 > 100 µM | HT-29 > 100 µM | NCI-H522 > 100 µM | NCI/ADR-RES > 100 µM | OVCAR-4 > 87.3 µM | SK-OV-3 > 100 µM | SNB-75 72.8 µM | SNB-78 > 100 µM

CCOC(=O)c1csc(NC(=O)CN2CCOCC2)n1
inactive: A498 > 100 µM | A549 > 100 µM | ACHN > 100 µM | EKVX > 100 µM | HL-60 > 100 µM | HOP-92 > 100 µM | HT-29 > 100 µM | M14 > 100 µM | MDA-MB-231 > 100 µM | NCI/ADR-RES > 100 µM | OVCAR-4 > 100 µM | SK-OV-3 > 100 µM | SNB-75 > 100 µM | T47D > 100 µM

COc1cc2c(cc1OC)C(Cl)C(c1ccc(Cl)c(Cl)c1)=C2Cl (centres undefined)
inactive: A498 16.9 µM | ACHN 10.2 µM | DMS-114 3.42 µM | DMS-273 3.86 µM | EKVX 18 µM | HL-60 2.47 µM | HOP-92 4.15 µM | HT-29 4.38 µM | LXFL 529 5.15 µM | M14 9.4 µM | NCI-H522 66.4 µM | SK-OV-3 15.5 µM | SNB-75 8.79 µM | SNB-78 5.56 µM

C[C@]12Cc3cn[nH]c3C(=O)C1CC[C@@H]1C2CC[C@@]2(C)C1CC[C@]2(C)O (some centres undefined)
inactive: A498 > 100 µM | A549 > 100 µM | ACHN > 100 µM | DMS-114 > 100 µM | DMS-273 > 100 µM | EKVX > 100 µM | HCT-116 > 100 µM | HL-60 > 100 µM | HOP-92 > 100 µM | HT-29 > 100 µM | LXFL 529 > 100 µM | M14 > 100 µM | NCI-H522 > 100 µM | OVCAR-4 > 100 µM | SK-OV-3 > 100 µM | SNB-75 39.7 µM | SNB-78 > 100 µM

NC(=O)N/C=C1\C(=O)Oc2ccccc2C1=O
inactive: A549 10 µM | ACHN 48.2 µM | DMS-114 > 100 µM | DMS-273 > 100 µM | EKVX > 100 µM | HCT-116 > 100 µM | HL-60 53.8 µM | HOP-92 56.9 µM | HT-29 > 100 µM | LXFL 529 > 100 µM | M14 82.8 µM | OVCAR-4 > 100 µM | SNB-78 43.2 µM
